This is an account of results in paper PMC5656594 (Scientific Reports, 2017).

One test has as its target T1, G187R IN^PFV-DNA complex (Human spumaretrovirus, UniProt P14350, G938R/G968S/S969G).
T1 construct: The pET-IN-PFV plasmid containing the full-length IN gene was used for mutagenesis; His; made in house; host or cells: E. coli BL21-CodonPlus (DE3)-RIPL
Put plainly: Fluorescence enhancement DTG-binding assay, G187R mutant. Details: species or system prototype foamy virus (PFV). As to conditions: DTG 0.3 μM, 1 mM Mg2+. On the procedure: The fluorescence intensity was monitored as a function of (IN + DNA) and plotted as a function of the binary IN-DNA complex concentration (measured as explained in Fig. 2E legend). […] The graphs in panels A-B show representative data of three independent experiments.
Fluorescence excitation and emission spectra of INSTIs were recorded on a Eclipse (Varian) spectrofluorimeter equipped with two polarizers for anisotropy measurements and a thermostated cell holder, using 80 µl solutions placed in micro cells (Hellma). Drug, IN and DNA concentrations, excitation/emission slit settings as well as the photomultiplier tube (PMT) voltage are specified in figure legends. The intensity value was corrected from the inner filter effect. The steady-state fluorescence anisotropy was calculated using: r = (IVV–G x IVH)/(IVV + 2GxIVH) where IVV and IVH correspond to vertical and horizontal components, respectively, when the sample is excited with vertically polarized light. G represents the correction factor for the difference in the monochromator transmission between // and ⊥ polarized components: G = IHV/IHH. All experiments were performed at 25 °C in buffer A: 20 mM Tris pH 7.2, 50 mM NaCl, 1 mM DTT and 10% (v/v) DMSO.

Another test addresses T2, E221A IN^PFV-DNA complex (Human spumaretrovirus, UniProt P14350, E972A/G968S/S969G).
T2 construct: The pET-IN-PFV plasmid containing the full-length IN gene was used for mutagenesis; His; made in house; host or cells: E. coli BL21-CodonPlus (DE3)-RIPL
Put plainly: Fluorescence enhancement DTG-binding assay, E221A catalytic mutant. The arrangement: species or system prototype foamy virus (PFV). As to conditions: 1 mM Mg2+. The protocol: (§1) The fluorescence intensity was monitored as a function of (IN + DNA) and plotted as a function of the binary IN-DNA complex concentration (measured as explained in Fig. 2E legend). […] (B) The percentage of ternary complexes was calculated using DTG fluorescence enhancement. […] The graphs in panels A-B show representative data of three independent experiments. […] "DTG" is taken from the y-axis title of the same panel.
(§2) To note, Mg^2+ is dispensable for the overall DNA-binding step of IN[32],[43]–[45] and thus, the loss of Mg^2+ chelation is not contradictory with results showing that catalytic mutants bind equally well to DNA and in a similar manner than wt IN (Supplementary Fig. S6). However, G187R cannot be considered as a catalytic mutant since it sustains a significant ST activity although weak (≈10% of the wt activity; Fig. 6).
(§3) Fluorescence excitation and emission spectra of INSTIs were recorded on a Eclipse (Varian) spectrofluorimeter equipped with two polarizers for anisotropy measurements and a thermostated cell holder, using 80 µl solutions placed in micro cells (Hellma). […] The steady-state fluorescence anisotropy was calculated using: r = (IVV–G x IVH)/(IVV + 2GxIVH) where IVV and IVH correspond to vertical and horizontal components, respectively, when the sample is excited with vertically polarized light. […]

Test [1] has as its target T3, IN^PFV-viral DNA interaction (Human spumaretrovirus, UniProt P14350).
T3 construct: The full-length wt IN^PFV, the three single mutants of the catalytic triad; His; made in house; host or cells: E. coli BL21-CodonPlus (DE3)-RIPL
Kind of test: IN-viral DNA interaction by steady-state fluorescence anisotropy of Fl-DNA with increasing drug concentrations. The class given is binding, prototype foamy virus (PFV). The settings on record: 400 nM IN^PFV, 4 nM Fl-PFV^CAAT, 10 mM Mg2+, up to 20 µM drug; means INSTI did not prevent IN-DNA interactions. On the procedure:
Their incapability to prevent or disrupt IN-viral DNA complexes was consistently observed over the whole concentration range, regardless of the INSTI tested (Supplementary Fig. S7).
IN^PFV binding to DNA was measured by fluorescence anisotropy on a Beacon Instrument (Panvera, Madison, WI, USA) as previously described[25],[51], using a double-stranded 21-mer Fl-labeled DNA mimicking the PFV U5 LTR end also referred to as DNA#1 in Table 1 (labeled at the 5′-end of the reactive strand). IN binding to Fl-PFV^CAAT (or Fl-DNA#1) was compared to the binding to other DNA sequences (Fl-DNA#8 #9 #13). DNA annealing was obtained by mixing equimolar amounts of complementary strands in buffer A, heating to 85 °C for 5 min and slow cooling to 25 °C. DNA-binding experiments were performed at 25 °C in buffer A.
Figure S7. Differential effect of INSTI and INBI compounds on the INPFV-viral DNA interaction.
The formation of IN-DNA complexes was measured by steady-state fluorescence anisotropy using 400 nM INPFV and 4 nM Fl-PFVCAAT (also named Fl-DNA#1) in the presence of 10 mM Mg2+ and […]
In each plot, the starting r value (≈ 0.20) corresponds to the typical value found at saturating concentrations of IN (see Fig. S6).
The INBI compound FZ41, a member of the styrylquinoline family of inhibitors, was used as a control […]
show mean ± SD values from two independent experiments. […]

For a further test, the target named is T4, IN alone (IN^PFV) (Human spumaretrovirus, UniProt P14350).
T4 construct: The full-length wt IN^PFV, the three single mutants of the catalytic triad; His; made in house; host or cells: E. coli BL21-CodonPlus (DE3)-RIPL
Kind of test: DTG fluorescence enhancement in the presence of IN alone. In kind it is binding, prototype foamy virus (PFV). The settings on record: 1 mM Mg2+. On the procedure: The three other conditions (i→iii) led to superimposable spectra. To note, the presence of IN/DNA complexes accounts for light scattering on the blue side of the spectrum.
All experiments were performed in the presence of 1 mM Mg^2+ (see Supplementary Fig. S4 for [Mg^2+] = 10 mM). λex = 345 nm and PMT = 980 V (Δλex = Δλem = 5 nm). […] Contributions of Raman and Rayleigh scattering were eliminated in the inset spectrum: (viii) = (iv)–(vii) where (vii) represents the proper spectrum of Mg^2+-DTG in the context of the binary IN-DNA complex. […] [Mg^2+] = 1 mM. Inset: fluorescence intensity (375–385 nm) as a function of (IN + DNA). The arrows indicate the intensity level after addition of 500 mM NaCl. Emission spectra are representative of 3 independent experiments for each condition of (IN + DNA). […] (E) Measurement of the binary IN-DNA complex formation. The formation of binary complexes was performed by monitoring the fluorescence anisotropy (r) of DNA (Fl-PFV^CAAT) under similar experimental conditions of the DTG-binding assay (panels C-D). Top, varying stoichiometric concentrations of IN and DNA were mixed and the r parameter was monitored. […]
Fluorescence excitation and emission spectra of INSTIs were recorded on a Eclipse (Varian) spectrofluorimeter equipped with two polarizers for anisotropy measurements and a thermostated cell holder, using 80 µl solutions placed in micro cells (Hellma). […]

For the next test, the target named is T5, D185N IN^PFV-DNA complex (Human spumaretrovirus, UniProt P14350, D936N).
T5 construct: The pET-IN-PFV plasmid containing the full-length IN gene was used for mutagenesis; His; made in house; host or cells: E. coli BL21-CodonPlus (DE3)-RIPL
Put plainly: Fluorescence enhancement DTG-binding assay, D185N catalytic mutant. As to conditions: 1 mM Mg2+. The arrangement: species or system prototype foamy virus (PFV). The protocol: as §1, §2, §3

Regarding `C[C@@H]1CCO[C@H]2Cn3cc(C(=O)NCc4ccc(F)cc4F)c(=O)c(O)c3C(=O)N12` [DTG, dolutegravir], the “DTG binding to G187R” value on G187R IN^PFV-DNA complex is recorded as “No binding”. For the same molecule, the “DTG binding to E221A catalytic mutant” value on E221A IN^PFV-DNA complex is recorded as “loss of DTG-binding”. For the same molecule, the “r value of Fl-DNA (IN-DNA complex) on increasing INSTI concentration” value in test [1] was “remained constant”. For the same molecule, at IN alone (IN^PFV), the “DTG binding to IN alone” value is reported as “no DTG binding”. The “DTG binding to D185N catalytic mutant” value at D185N IN^PFV-DNA complex was “loss of DTG-binding”.
